What was measured:
Type in all cases: biochemical
[1] = target: T1, actHePTP (hematopoietic PTP) (Homo sapiens, UniProt P35236, E262C/S263C/T260C); experiment: pNPP phosphatase assay (activation, dose dependence); also in-gel fluorescence of labelled protein in lysate
T1 construct: gene PTPN7; His6-tagged catalytic domain, residues 65–360
T1 sequence (P35236 65-360 T260C/E262C/S263C): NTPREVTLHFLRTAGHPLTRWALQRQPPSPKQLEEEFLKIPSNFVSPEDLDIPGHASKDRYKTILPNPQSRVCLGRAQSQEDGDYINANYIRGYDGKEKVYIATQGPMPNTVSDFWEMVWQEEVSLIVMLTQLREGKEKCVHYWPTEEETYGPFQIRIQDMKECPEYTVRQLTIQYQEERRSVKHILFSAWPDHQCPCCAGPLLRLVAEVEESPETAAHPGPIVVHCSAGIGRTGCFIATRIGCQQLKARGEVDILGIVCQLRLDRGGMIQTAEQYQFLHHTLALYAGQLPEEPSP

[2] = target: T2, actPTPκ (PTPkappa) (Homo sapiens, UniProt Q15262, H1056C/V1053C/Y1055C); experiment: as above
T2 construct: gene PTPRK; His6-tagged catalytic domain, residues 870–1154
T2 sequence (Q15262 869-1153 V1053C/Y1055C/H1056C): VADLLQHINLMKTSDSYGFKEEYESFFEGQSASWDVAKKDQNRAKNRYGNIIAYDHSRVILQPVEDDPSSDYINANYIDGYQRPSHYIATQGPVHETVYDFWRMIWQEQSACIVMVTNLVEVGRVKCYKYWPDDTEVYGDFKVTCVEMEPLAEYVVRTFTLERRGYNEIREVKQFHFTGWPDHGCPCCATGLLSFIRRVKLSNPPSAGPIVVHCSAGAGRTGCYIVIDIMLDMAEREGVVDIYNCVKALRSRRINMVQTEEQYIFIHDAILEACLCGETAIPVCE

[3] = target: T3, actSHP2 (Src-homology-2-domain-containing PTP 2) (Homo sapiens, UniProt Q06124, C333P/V428C/S430C/D431C); experiment: pNPP phosphatase assay (activation at […])
T3 construct: gene PTPN11; His6-tagged catalytic domain
T3 sequence (Q06124 247-517 C333P/V428C/S430C/D431C limits assumed): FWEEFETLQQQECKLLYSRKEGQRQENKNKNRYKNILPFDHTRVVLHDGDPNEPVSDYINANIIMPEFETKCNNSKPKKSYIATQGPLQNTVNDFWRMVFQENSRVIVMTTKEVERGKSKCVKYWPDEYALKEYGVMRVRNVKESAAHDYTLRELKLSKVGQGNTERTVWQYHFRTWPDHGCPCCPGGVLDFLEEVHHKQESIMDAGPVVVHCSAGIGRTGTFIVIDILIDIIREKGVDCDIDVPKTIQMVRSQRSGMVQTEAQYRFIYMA

CC1(C)C(/C=C/C=C/C=C2/N(CCCCS(=O)(=O)O)c3ccc([As]4SCCS4)cc3C2(C)C)=[N+](CCCCS(=O)(=O)[O-])c2ccc([As]3SCCS3)cc21 [AsCy5]
AC50 [1]: ~200 nM | AC50 [2]: ~600 nM | pNPP phosphatase assay (activation at 1 μM) [3]: Both cyanine-derived biarsenicals, AsCy3 and AsCy5, were more successful in activating actSHP2 than FlAsH and ReAsH

From paper PMC6834593, “Chemical activation of divergent protein tyrosine phosphatase domains with cyanine-based biarsenicals” (Scientific Reports, 2019)
